≈ marks a conversion by molar mass, not a printed value. Calls of active or inactive are those of the source. No cut-off for these calls is given here.
What was measured:
Aspergillus fumigatus [1] = assay: Antifungal activity against azole-susceptible Aspergillus fumigatus isolate CM-237 assessed as fungal growth at 4 mg/l relative to control; format: functional, organism-based
Aspergillus fumigatus [2] = assay: Antifungal activity against azole-resistant Aspergillus fumigatus isolate T22 harboring Cyp51A TR/L98H mutation assessed as inhibition of fungal growth at 4 mg/l relative to control; format: functional, organism-based
Aspergillus fumigatus [3] = assay: Antifungal activity against azole-susceptible Aspergillus fumigatus isolate CM-237 by EUCAST microdilution method; format: functional
Aspergillus fumigatus [4] = assay: Antifungal activity against azole-resistant Aspergillus fumigatus isolate T11 harboring Cyp51A TR/L98H mutant gene assessed as inhibition of fungal growth at 4 mg/l relative to control; format: functional, organism-based
Aspergillus lentulus = assay: Antifungal activity against Aspergillus lentulus isolate; format: functional
Aspergillus fumigatus [5] = assay: Antifungal activity against azole-resistant Aspergillus fumigatus isolate R13 harboring Cyp51A TR/L98H mutant gene assessed as inhibition of fungal growth at 4 mg/l relative to control; format: functional, organism-based
Aspergillus nidulans = assay: Antifungal activity against Aspergillus nidulans isolate; format: functional
Aspergillus niger = assay: Antifungal activity against Aspergillus niger isolate; format: functional
Aspergillus fumigatus [6] = assay: Antifungal activity against azole-resistant Aspergillus fumigatus isolate T18 harboring Cyp51A TR/L98H mutation assessed as inhibition of fungal growth at 4 mg/l relative to control; format: functional, organism-based
Aspergillus fumigatus [7] = assay: Antifungal activity against Aspergillus fumigatus isolates harboring Cyp51A TR/L98H mutation by EUCAST method; format: functional
Aspergillus fumigatus [8] = assay: Antifungal activity against azole-resistant Aspergillus fumigatus isolate T11 harboring Cyp51A TR/L98H mutant gene assessed as inhibition of fungal growth at 0.5 mg/l relative to control; format: functional, organism-based
Aspergillus fumigatus [9] = assay: Antifungal activity against azole-susceptible Aspergillus fumigatus isolate CM-237 assessed as fungal growth at 0.5 mg/l relative to control; format: functional, organism-based
Aspergillus fumigatus [10] = assay: Antifungal activity against azole-resistant Aspergillus fumigatus isolate R13 harboring Cyp51A TR/L98H mutant gene assessed as inhibition of fungal growth at 0.5 mg/l relative to control; format: functional, organism-based
Aspergillus fumigatus [11] = assay: Antifungal activity against azole-resistant Aspergillus fumigatus isolate T22 harboring Cyp51A TR/L98H mutation assessed as inhibition of fungal growth at 0.5 mg/l relative to control; format: functional, organism-based
Aspergillus fumigatus [12] = assay: Antifungal activity against azole-resistant Aspergillus fumigatus isolate T18 harboring Cyp51A TR/L98H mutation assessed as inhibition of fungal growth at 0.5 mg/l relative to control; format: functional, organism-based
Aspergillus fumigatus [13] = assay: Antifungal activity against azole-resistant Aspergillus fumigatus isolate T18 harboring Cyp51A TR/L98H mutation assessed as inhibition of fungal growth at 1 mg/l relative to control; format: functional, organism-based
Aspergillus fumigatus [14] = assay: Antifungal activity against azole-resistant Aspergillus fumigatus isolate T11 harboring Cyp51A TR/L98H mutant gene assessed as inhibition of fungal growth at 1 mg/l relative to control; format: functional, organism-based
Aspergillus fumigatus [15] = assay: Antifungal activity against azole-susceptible Aspergillus fumigatus isolate CM-237 assessed as fungal growth at 1 mg/l relative to control; format: functional, organism-based
Aspergillus fumigatus [16] = assay: Antifungal activity against azole-resistant Aspergillus fumigatus isolate T22 harboring Cyp51A TR/L98H mutation assessed as inhibition of fungal growth at 1 mg/l relative to control; format: functional, organism-based
Aspergillus fumigatus [17] = assay: Antifungal activity against azole-resistant Aspergillus fumigatus isolate R13 harboring Cyp51A TR/L98H mutant gene assessed as inhibition of fungal growth at 1 mg/l relative to control; format: functional, organism-based

Row | SMILES | Activity (Aspergillus fumigatus [1]) | inhibition (Aspergillus fumigatus [2]) | MIC (Aspergillus fumigatus [3]) | inhibition (Aspergillus fumigatus [4]) | MIC (Aspergillus lentulus) | inhibition (Aspergillus fumigatus [5]) | MIC (Aspergillus nidulans) | MIC (Aspergillus niger) | inhibition (Aspergillus fumigatus [6]) | MIC (Aspergillus fumigatus [7]) | inhibition (Aspergillus fumigatus [8]) | Activity (Aspergillus fumigatus [9]) | inhibition (Aspergillus fumigatus [10]) | inhibition (Aspergillus fumigatus [11]) | inhibition (Aspergillus fumigatus [12]) | Activity (Aspergillus fumigatus [13]) | inhibition (Aspergillus fumigatus [14]) | inhibition (Aspergillus fumigatus [15]) | Activity (Aspergillus fumigatus [16]) | Activity (Aspergillus fumigatus [17])
1 | CCC(C)n1ncn(-c2ccc(N3CCN(c4ccc(OCC5COC(Cn6cncn6)(c6ccc(Cl)cc6Cl)O5)cc4)CC3)cc2)c1=O (stereo not given) [ITRACONAZOLE] | Active | inactive | 0.25 µg/mL (≈ 0.354 µM) | inactive | 0.5 µg/mL (≈ 0.709 µM) | Active | 1 µg/mL (≈ 1.42 µM) | 2 µg/mL (≈ 2.83 µM) | inactive | > 4 µg/mL |  |  |  |  |  |  |  |  |  | 
2 | CC[C@@H]([C@H](C)O)n1ncn(-c2ccc(N3CCN(c4ccc(OC[C@@H]5CO[C@@](Cn6cncn6)(c6ccc(F)cc6F)C5)cc4)CC3)cc2)c1=O [POSACONAZOLE] |  |  | 0.06 µg/mL (≈ 0.0856 µM) |  | 0.25 µg/mL (≈ 0.357 µM) |  | 0.5 µg/mL (≈ 0.713 µM) | 0.5 µg/mL (≈ 0.713 µM) |  | 0.25 µg/mL (≈ 0.357 µM) | inactive | Active | Active | Active | Active |  |  |  |  | 
3 | C[C@@H](c1ncncc1F)[C@](O)(Cn1cncn1)c1ccc(F)cc1F [VORICONAZOLE] |  |  | 0.5 µg/mL (≈ 1.43 µM) |  | 4 µg/mL (≈ 11.5 µM) |  | 4 µg/mL (≈ 11.5 µM) | 0.5 µg/mL (≈ 1.43 µM) |  | 2 µg/mL (≈ 5.73 µM) |  |  |  |  |  | Active | Active | Active | Active | inactive

From ChEMBL document CHEMBL1671758, “Environmental study of azole-resistant Aspergillus fumigatus and other aspergilli in Austria, Denmark, and Spain” (2010)
